Measurements taken from publication PMC11791314 (The Journal of Biological Chemistry, 2024).

Experiments:
[1] = target: T1, blood cell-specific α1/β1-tubulin (ChET), β1-tubulin (Gallus gallus, UniProt P02552+P09207); assay: ([…] Å, C8 ring); mass photometry Kd-app; assay type: binding
T1 construct: gene TUBA1A; native α1/β1-tubulin purified from the marginal band of chicken erythrocytes; with α1-tubulin (TUBA1A, P02552)

[2] = test system: T2, HeLa cell line tubulin (HeLaT), αβ-tubulin heterodimer; assay: mass photometry of ring assembly (Kd-app); assay type: binding
T2 construct: native αβ-tubulin purified from cultured HeLa cells (isotype mixture); with α1B-tubulin

[3] = target: T3, bovine brain tubulin (BBT), αβ-tubulin heterodimer; assay: mass photometry of ring assembly (Kd-app); assay type: binding, Bos taurus
T3 construct: native bovine brain αβ-tubulin (isotype mixture, PurSolutions)

α1-tubulin (ChET) = target: T4, α1-tubulin (ChET) (Gallus gallus, UniProt P02552); assay: cryo-EM structure ([…] Å); assay type: binding
T4 construct: gene TUBA1A; native α1/β1-tubulin from chicken erythrocytes, Cp-52 C8 ring; with β1-tubulin (TUBB1, P09207)
T4 sequence (P02552 whole entry): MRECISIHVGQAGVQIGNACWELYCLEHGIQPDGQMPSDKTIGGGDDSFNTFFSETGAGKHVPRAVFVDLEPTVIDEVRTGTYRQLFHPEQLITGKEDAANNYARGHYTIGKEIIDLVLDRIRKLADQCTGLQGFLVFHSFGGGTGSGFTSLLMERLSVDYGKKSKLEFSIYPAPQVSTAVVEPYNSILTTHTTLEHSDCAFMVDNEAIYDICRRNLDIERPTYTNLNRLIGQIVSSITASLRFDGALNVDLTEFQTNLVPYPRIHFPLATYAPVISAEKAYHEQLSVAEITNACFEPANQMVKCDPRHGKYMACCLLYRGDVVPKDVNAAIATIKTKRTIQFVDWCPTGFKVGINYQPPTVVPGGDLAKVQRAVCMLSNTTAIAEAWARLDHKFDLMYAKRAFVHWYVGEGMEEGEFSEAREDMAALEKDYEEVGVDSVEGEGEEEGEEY
T4 sequence (P09207 whole entry partner): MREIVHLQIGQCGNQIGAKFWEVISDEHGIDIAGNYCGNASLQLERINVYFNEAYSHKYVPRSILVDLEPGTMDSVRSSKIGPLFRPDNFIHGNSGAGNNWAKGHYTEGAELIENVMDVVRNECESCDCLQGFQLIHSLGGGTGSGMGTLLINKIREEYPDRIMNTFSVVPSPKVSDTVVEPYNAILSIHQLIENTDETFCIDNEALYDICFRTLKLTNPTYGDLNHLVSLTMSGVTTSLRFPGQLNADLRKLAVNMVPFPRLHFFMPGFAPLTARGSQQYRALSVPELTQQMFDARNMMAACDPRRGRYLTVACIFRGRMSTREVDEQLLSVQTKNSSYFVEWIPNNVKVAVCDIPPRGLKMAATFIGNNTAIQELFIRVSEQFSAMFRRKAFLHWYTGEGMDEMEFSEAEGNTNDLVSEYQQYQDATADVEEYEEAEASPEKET

T1 sequence (P02552 whole entry): as the sequence (P02552 whole entry) above
T1 sequence (P09207 whole entry): as the sequence (P09207 whole entry partner) above

COc1ccc(C[C@H]2NC(=O)/C=C/C[C@@H]([C@H](C)[C@H]3O[C@@H]3c3ccccc3)OC(=O)[C@H](CC(C)C)OC(=O)C(C)(C)CNC2=O)cc1Cl [Cp-52, cryptophycin-52]
Kd [1]: 0.065 ± 0.017 µM
Kd [2]: 0.025 ± 0.007 µM
Kd [3]: 0.172 ± 0.036 µM

Nc1nc2c(ncn2[C@@H]2O[C@H](COP(=O)(O)OP(=O)(O)OP(=O)(O)O)[C@@H](O)[C@H]2O)c(=O)[nH]1 [GTP]
cryo-EM structure (3.2 Å) (α1-tubulin (ChET)): comprises one copy of α1-tubulin with its bound GTP
